{"source": "patent US12036212B2", "about": "“Enhancement of tumor response to chemotherapy by activation of the asmase/ceramide pathway through timed administration of a short-acting anti-angiogenic agent” (Memorial Sloan-Kettering Cancer Center, priority 2014, dated 2024)", "key": {"ceramide [1]": {"tested_on": "ceramide", "test": "Ceramide generation (diacylglycerol kinase assay) in BAEC", "type": "cell-based, bovine", "details": "paclitaxel 100 nM; for Ceramide generation: etoposide 50 μM, cisplatin 0.1-50 μM", "experimental": "(§1) BAEC were established from the intima of bovine aorta as described^1. Stock cultures were grown in 100-mm dishes in Dulbecco's modified Eagle's medium (DMEM) supplemented with glucose (1 g/liter), 5% heat-inactivated calf serum (CS), penicillin (50 units/ml), and streptomycin (50 μg/ml). Purified human recombinant bFGF (1 ng/ml; R&D Systems, Inc., Minneapolis, MN) was added every other day during the exponential growth phase. […] These plateau phase cells were either used for experiments, or further sub-cultured (up to a maximum of 10 times) at a split ratio of 1:8. For sub-culturing, monolayers were dissociated with STV (0.05% trypsin and 0.02% EDTA in PBS) for 2-3 min at 22° C., washed twice in 5% CS-DMEM, and resuspended in DMEM with supplements as above. These mild conditions of trypsinization were sufficient to detach cells but not injure, stimulate, or affect cell function in a detectable way. BAEC were maintained at 37° C. in 10% CO2 humidified incubators.\nAfter treatment, cells were placed on ice, washed with cold PBS, and lipids were extracted by addition of scraped cells in methanol to an equal volume of chloroform and 0.6 volume of buffered saline/EDTA solution (135 mM NaCl, 4.5 mM KCl, 1.5 mM CaCl2), 0.5 mM MgCl2, 5.6 mM glucose, 10 mM HEPES pH 7.2, 10 mM EDTA). Lipids in the organic phase extract were dried under N2 and subjected to mild alkaline hydrolysis (0.1 N methanolic KOH for 1 hour at 37° C.) to remove glycerophospholipids. Samples were re-extracted, and the organic phase was dried under N2. Ceramide contained in each sample was resuspended in a 100 μl reaction mixture containing 150 μg of cardiolipin, 280 μM diethylenetriaminepentaacetic acid, 51 mM octyl-β-glucopyranoside (Calbiochem), 50 mM NaCl, 51 mM imidazole, 1 mM EDTA, 12.5 mM MgCl2, 2 mM dithiothreitol, 0.7% glycerol, 70 μM β-mercaptoethanol, 1 mM ATP, 10 μCi of [γ-^32P]ATP, 35 μg/ml Escherichia coli diacylglycerol kinase (Calbiochem) at pH 6.5. After 30 minutes at room temperature, the reaction was stopped by extraction of lipids with 1 ml of chloroform:methanol:1 N HCl (100:100:1), 170 μl of buffered saline solution (BSS) (135 mM NaCl, 1.5 mM CaCl2, 0.5 mM MgCl2, 5.6 mM glucose, and 10 mM HEPES (pH 72), and 30 μl of 100 mM EDTA. The lower organic phase was dried under N2. Ceramide-1 phosphate was resolved by thin-layer chromatography on silica gel 60 plates (Whatman) using a solvent system of chloroform:methanol:acetic acid (65:15:5, v/v/v) and detected by autoradiography, and incorporated ^32P was quantified by liquid scintillation counting. The level of ceramide was determined by comparison with a standard curve generated concomitantly of known amounts of ceramide.\nTo test the effect of chemotherapy on ASMase signaling and ceramide production, BAEC were treated with paclitaxel (100 nM) and ASMase activity was determined by radioenzymatic assay (Rotolo et al, infra) using [^14C-methylcholine] sphingomyelin (Amersham) as substrate (FIG. 1A). […] Ceramide generation was monitored using the diacylglycerol kinase assay (Stancevic et al. PLoS ONE 8, e69025, 2013). […]\n(§2) To determine the generality of the results observed, experiments were carried out using an additional endothelial cell line, human coronary artery endothelial cells (HCAEC); experiments were also performed using a different chemotherapeutic agent. […] Next, HCAEC were treated with paclitaxel (100 nM) (data not shown) and etoposide (50 μM) (FIG. 1F), and ceramide generation was evaluated. […]"}, "ASMase": {"tested_on": "ASMase", "test": "ASMase activity radioenzymatic assay in BAEC", "type": "cell-based, bovine", "experimental": "as §1\nASMase activity was quantified by radioenzymatic assay using [^14C-methylcholine]sphingomyelin (Amersham) as substrate as described (Schissel et al. J Biol Chem, 271, 18431-18436, 1996). Cell lysates were incubated with [^14C-methylcholine]-sphingomyelin substrate (0.026 mCi/9.5 nmol) in 250 mM sodium acetate, pH 5.0 supplemented with 0.1% Triton X-100 and 1 mM EDTA or 0.1 mM ZnCl. Reactions were terminated after 1 h with CHCl3:MeOH:1N HCl (100:100:1, v/v/v), and [^14C-methylcholine]phosphocholine product in the aqueous layer of the Folch extract was quantified using a Beckman Packard 2200 CA Tricarb scintillation counter. For detection of ASMase activity in patients, 10 μl of serum was used.\nTo test the effect of chemotherapy on ASMase signaling and ceramide production, BAEC were treated with paclitaxel (100 nM) and ASMase activity was determined by radioenzymatic assay (Rotolo et al, infra) using [^14C-methylcholine] sphingomyelin (Amersham) as substrate (FIG. 1A). Induction of ASMase activity was observed within 5 minutes after treatment, and the activation continued for 30 minutes. Ceramide generation was monitored using the diacylglycerol kinase assay (Stancevic et al. PLoS ONE 8, e69025, 2013). […] In further support of this, pre-incubation of BAEC with nystatin prior to treatment with chemotherapy inhibits chemotherapy-induced apoptosis (FIG. 3).\nTo determine the generality of the results observed, experiments were carried out using an additional endothelial cell line, human coronary artery endothelial cells (HCAEC); experiments were also performed using a different chemotherapeutic agent. […] Next, HCAEC were treated with paclitaxel (100 nM) (data not shown) and etoposide (50 μM) (FIG. 1F), and ceramide generation was evaluated.\nTo further establish the generality of ASMase activation by various chemotherapeutic agents, BAEC and HCAEC were treated with increasing doses of cisplatin (0.1-50 μM) (data not shown). […] The ASMase/ceramide pathway was activated by chemotherapeutic agents that belong to different classes of chemotherapeutic agents, such as: taxanes, topoisomerase inhibitors, and nucleoside analog metabolic inhibitors. Since such chemotherapy agents are characterized by distinct mechanisms of action in tumor cells, it is surprising that a group of such distinct agents converges on a common molecular (ASMase/ceramide) axis in endothelium. The present confirmation that distinct chemotherapeutic agents activate the ASMase/ceramide pathway permits the present inventors to take into account the results of experiments using single dose radiotherapy, which has been reported to activate the same pathway (Rao, S. S. et al., Axitinib sensitization of high Single Dose Radiotherapy. Radiotherapy and Oncology: Journal of the European Society for Therapeutic Radiology and Oncology 111, 88-93, doi:10.1016/j.radonc.2014.02.010 (2014)).\nGemcitabine was able to activate ASMase in cultured endothelial cells. […]"}, "ceramide [2]": {"tested_on": "ceramide", "test": "Ceramide generation in HCAEC", "type": "cell-based, human", "details": "paclitaxel 100 nM, etoposide 50 μM, cisplatin 0.1-50 μM", "experimental": "HCAEC were obtained from Clonetics™ Coronary Artery Endothelial Cell Systems (Cambrex Bio Science Inc.). For HCAEC culturing and sub-culturing Clonetics cell system components were used: EBM®-2, Endothelial Cell Basal Medium-2 with addition of Clonetics EGM-2-MV SingleQuots containing growth supplements (Cambrex) (Biomedical Technologies, Inc.). For sub-culturing, monolayers were dissociated with Clonetics® Trypsin/EDTA solution for 2-3 min at 22° C. at a split ratio of 1:4 to expand the cell population for experiments. HCAEC cultures were maintained at 37° C. in 5% CO2 humidified incubators.\nAfter treatment, cells were placed on ice, washed with cold PBS, and lipids were extracted by addition of scraped cells in methanol to an equal volume of chloroform and 0.6 volume of buffered saline/EDTA solution (135 mM NaCl, 4.5 mM KCl, 1.5 mM CaCl2), 0.5 mM MgCl2, 5.6 mM glucose, 10 mM HEPES pH 7.2, 10 mM EDTA). […] After 30 minutes at room temperature, the reaction was stopped by extraction of lipids with 1 ml of chloroform:methanol:1 N HCl (100:100:1), 170 μl of buffered saline solution (BSS) (135 mM NaCl, 1.5 mM CaCl2, 0.5 mM MgCl2, 5.6 mM glucose, and 10 mM HEPES (pH 72), and 30 μl of 100 mM EDTA. The lower organic phase was dried under N2. Ceramide-1 phosphate was resolved by thin-layer chromatography on silica gel 60 plates (Whatman) using a solvent system of chloroform:methanol:acetic acid (65:15:5, v/v/v) and detected by autoradiography, and incorporated ^32P was quantified by liquid scintillation counting. The level of ceramide was determined by comparison with a standard curve generated concomitantly of known amounts of ceramide.\nas §2"}}, "data": [{"compound": "N.N.[Cl][Pt][Cl]", "note": "[cisplatin]", "values": [{"measurement": "Ceramide generation", "setting": "ceramide [1]", "result": "failed to activate ASMase and result in generation of ceramide"}, {"measurement": "ASMase activation", "setting": "ASMase; etoposide 50 μM, cisplatin 0.1-50 μM, gemcitabine 100 nM time-course", "result": "failed to activate ASMase"}, {"measurement": "Ceramide generation", "setting": "ceramide [2]", "result": "failed to activate ASMase and result in generation of ceramide"}]}, {"compound": "CC(=O)O[C@H]1C(=O)[C@@]2(C)[C@H]([C@H](OC(=O)c3ccccc3)[C@]3(O)C[C@H](OC(=O)[C@H](O)[C@@H](NC(=O)c4ccccc4)c4ccccc4)C(C)=C1C3(C)C)[C@]1(OC(C)=O)CO[C@@H]1C[C@@H]2O", "note": "[paclitaxel]", "values": [{"measurement": "Ceramide generation persisted for", "setting": "ceramide [1]", "result": 30, "unit": "min"}, {"measurement": "Ceramide generation", "setting": "ceramide [1]", "result": "peaked within minutes"}, {"measurement": "ASMase activation continued for", "setting": "ASMase; paclitaxel 100 nM", "result": 30, "unit": "min"}, {"measurement": "Induction of ASMase activity, time after treatment", "setting": "ASMase; paclitaxel 100 nM", "result": "≤ 5", "unit": "min"}, {"measurement": "Ceramide generation", "setting": "ceramide [2]", "result": "leads to the generation of ceramide"}]}]}
